{"source": "ChEMBL document CHEMBL1135144", "about": "“N-(pyrimidin-4-yl) and N-(pyridin-2-yl) phenylalanine derivatives as VLA-4 integrin antagonists” (Bioorg Med Chem Lett, 2002)", "data": [{"assay": "Compound was evaluated for rate of clearance in IPRL (Isolated Perfused Rat Liver)", "format": "ADME", "units": {"k el": "s⁻¹"}, "values": [{"smiles": "CC(C)CS(=O)(=O)c1nc(N[C@@H](Cc2ccc(NC(=O)c3c(Cl)cncc3Cl)cc2)C(=O)O)cc(C(=O)O)n1", "k el": 0.00164}, {"smiles": "CCCS(=O)(=O)c1nc(N[C@@H](Cc2ccc(NC(=O)c3c(Cl)cncc3Cl)cc2)C(=O)O)cc(OC)n1", "k el": 0.00156}, {"smiles": "O=C(Nc1ccc(C[C@H](Nc2cc(Oc3ccccc3)ncn2)C(=O)O)cc1)c1c(Cl)cncc1Cl", "k el": 0.000861}, {"smiles": "CSc1ncc(C(=O)O)c(N[C@@H](Cc2ccc(NC(=O)c3c(Cl)cncc3Cl)cc2)C(=O)O)n1", "k el": 0.000361}, {"smiles": "CCCS(=O)(=O)c1nc(N[C@@H](Cc2ccc(NC(=O)c3c(Cl)cncc3Cl)cc2)C(=O)O)cc(C(=O)O)n1", "k el": 0.00025}, {"smiles": "O=C(Nc1ccc(CC(Nc2ccc(Cl)cn2)C(=O)O)cc1)c1c(Cl)cncc1Cl", "note": "(centres undefined)", "k el": "5.56e-05"}, {"smiles": "CCCCCCS(=O)(=O)c1nc(N[C@@H](Cc2ccc(NC(=O)c3c(Cl)cncc3Cl)cc2)C(=O)O)cc(C(=O)O)n1", "k el": 0.000861}, {"smiles": "CCC[S+]([O-])c1cc(NC(Cc2ccc(NC(=O)c3c(Cl)cncc3Cl)cc2)C(=O)O)ncc1Cl", "note": "(centres undefined)", "k el": 0.00128}, {"smiles": "O=C(Nc1ccc(C[C@H](Nc2cc(S(=O)(=O)Cc3ccccc3)ncn2)C(=O)O)cc1)c1c(Cl)cncc1Cl", "k el": 0.00144}, {"smiles": "CCCS(=O)(=O)c1cc(N[C@@H](Cc2ccc(NC(=O)c3c(Cl)cncc3Cl)cc2)C(=O)O)ncn1", "k el": 0.00122}, {"smiles": "CS(=O)(=O)c1cc(N[C@@H](Cc2ccc(NC(=O)c3c(Cl)cncc3Cl)cc2)C(=O)O)ncn1", "k el": 0.00111}, {"smiles": "CCC[S+]([O-])c1cc(N[C@@H](Cc2ccc(NC(=O)c3c(Cl)cncc3Cl)cc2)C(=O)O)ncn1", "note": "(some centres undefined)", "k el": 0.00119}, {"smiles": "CCCS(=O)(=O)c1cc(NC(Cc2ccc(NC(=O)c3c(Cl)cncc3Cl)cc2)C(=O)O)ncc1Cl", "note": "(centres undefined)", "k el": 0.000583}, {"smiles": "CCCS(=O)(=O)c1ccnc(NC(Cc2ccc(NC(=O)c3c(Cl)cncc3Cl)cc2)C(=O)O)c1", "note": "(centres undefined)", "k el": 0.00144}, {"smiles": "CCCS(=O)(=O)c1cc(NC(Cc2ccc(NC(=O)c3c(Cl)cncc3Cl)cc2)C(=O)O)ncc1C(=O)O", "note": "(centres undefined)", "k el": "5.56e-05"}, {"smiles": "COc1cc(N[C@@H](Cc2ccc(NC(=O)c3c(Cl)cncc3Cl)cc2)C(=O)O)nc(S(C)(=O)=O)n1", "k el": 0.00136}, {"smiles": "CCCS(=O)(=O)c1nc(C)cc(N[C@@H](Cc2ccc(NC(=O)c3c(Cl)cncc3Cl)cc2)C(=O)O)n1", "k el": 0.00181}, {"smiles": "O=C(Nc1ccc(C[C@H](Nc2cc(Cc3ccccc3)ncn2)C(=O)O)cc1)c1c(Cl)cncc1Cl", "k el": 0.00178}, {"smiles": "CCCS(=O)(=O)c1nccc(N[C@@H](Cc2ccc(NC(=O)c3c(Cl)cncc3Cl)cc2)C(=O)O)n1", "k el": 0.00122}]}]}
